Marks after values point to notes of the source that are not given here.
Key:
Na^+/Ca^2+ exchanger = target: T1, Na^+/Ca^2+ exchanger (Cavia porcellus, UniProt P48766); test: Na^+/Ca^2+ exchange current (INa—Ca), whole-cell patch clamp, intracellular Na^+ overload cell model; type: cell-based, guinea pig
T1 construct: endogenous in cells; host or cells: freshly isolated guinea pig ventricular myocytes
Text: 1. Establishment of Assaying Method for Biphasical Current Detection in Na^+/Ca^2+ Exchange System
Since the reverse mode of Na^+/Ca^2+ exchange process is one of the main mechanisms involving in ischemia/reperfusion insult, it is of great importance to establish cell model represented reverse mode Na^+/Ca^2+ exchange process for the development of drugs against ischemic injury. Therefore, we successfully established cell model of reverse mode Na^+/Ca^2+ exchange system by intracellular Na^+ dialysis technique, and recorded Na^+/Ca^2+ exchange currents by patch clamp experiment.
Internal solution contained certain concentration of NaCl was filled to the microcatheter, and ion exchange process between the cellular and internal solutions was conducted after whole cell currents were recorded by patch clamp. Na^+ contained in the internal solution was dialyzed into the cell; result in the high intracellular Na^+ concentration. After that, the cell was champed at a holding potential of −40 mV, then depolarized to +60 mV and followed by a conversely declining ramp stimuli at a speed of 80 mV·s^−1 and 2 s conditioning pulse, then repolarized to −100 mV with a frequency of 0.05 Hz. Under the stimulation protocol, current from outward to the inward direction was recorded by perfusing modified biphasical Tyrode solution (in which the outward and inward currents can be recorded simultaneously) with the addition of 1 mmol·L^−1 of BaCl2 and 2 mmol·L^−1 of CsCl to block K^+ channels, 1 μmol·L^−1 of verapamil to block L-type Ca^2+ channels, and 20 μmol·L^−1 of ouabain to block Na^+/K^+ ATPase, and 20 mmol·L^−1 of TEA to block potassium channels. The recorded inward currents were presented in a linear manner owing to the blockade of other time-dependent currents. With the increase of intracellular Na^+ level and prolongation of time, the reverse mode of Na^+/Ca^2+ exchange process was activated. […] Under such experimental conditioning, the maximum reverse mode current was recorded 3 min after cell crushed. No significant “run-down” was observed within the record period of 8 minutes. The inward and outward current were inhibited by 5 mmol·L^−1 of Ni^2+ treatment, and the experiment result in two current-voltage curves in the absence or presence of Ni^2+. The Ni^2+ sensitive current, also called electrophysiological Na^+/Ca^2+ exchange current (INa·Ca), was the minus result of two current-voltage curves. The reverse mode potential of INa—Ca was about −20 mV
Male guinea pigs weighting 250˜280 g provided by the Animal Center of the Chinese Academy of Medical Sciences were hammered and sacrificed. The chest was opened and the heart was removed quickly. Fatty tissue and pericardium were removed in a Ca^2+-free solution at 4° C., and heart was sequentially mounted on a Langendorff apparatus. First, the heart was perfused conversely via the aorta for 6 min with Ca^2+-free solution in order to wash out residual blood, then the heart expands and the color of it turns to pink. Then the heart was perfused with Ca^2+-free solution containing 0.1 mg/ml of pronase E, 0.5 mg/ml defatted bovine serum albumin (BSA) and 150 μM Ca^2+ for 2˜3 min, until the heart expanded and became soft. The atrium was removed, and the digested heart was minced with scissors, stirred in a beaker at 37° C. for 5˜10 min. The supernatant was diluted with Ca^2+-free solution containing 0.5 mg/ml BSA and 1.8 mM Ca^2+. The supernatant was placed at room temperature (20˜24° C.) for 1 hr and then subjected to the experiment. During the whole perfusion period, pressure was kept at 70 cmH2O and the temperature of solution was kept at 37° C. with continuously gassed with 95% O2 and 5% CO2.
Rod-shaped cells with clear striations and intact membrane were used. […]

[1] = system: isolated rat hearts subjected to ischemia-reperfusion (I/R); test: Isolated heart subjected to ischemia/reperfusion injury (arrhythmia); details: for AAT: arrhythmic occurrence time, Time / VF (ventricular fibrillation) Incidence rate (%) / VPS (ventricular premature beats) Incidence rate (%) / VT (ventricular tachycardia) Incidence rate (%): 10^−6 M, isolated heart ischemia/reperfusion
Method: Based on the pre-electrophysiological cell model screening, we have compared the inhibition ratios of the outward current by reverse-transportation of Na^+/Ca^2+ exchange, and further in vitro tests on isolated rat hearts subjected to ischemia-reperfusion (I/R) were conducted. Prolongation of ventricular arrhythmic, incidence rate of ventricular extrasystole, ventricular tachycardia/ventricular fibrillation (VT/VF) were recorded to evaluate the protective actions of drugs on myocardial injury.
On the basis of above screening results obtained from electrophysiological studies, and the result from comparative study on the research of the inhibitory effect of compounds on reverse mode Na^+/Ca^2+ exchange process, 7 effective compounds were subjected to in vitro study. Among which, IMM-313, IMM-004 and IMM-132 have structures containing chlorine; IMM-127, IMM-128 and IMM-129 have structures containing fluorine; and IMM-065 has a structure containing OH. The experiment performed in the isolated heart subjected to ischemia/reprefusion insult. Prolongation of ventricular arrhythmic, incidence of ventricular extrasystole, ventricular tachycardia/ventricular fibrillation (VT/VF) were recorded in order to evaluate the protective actions of drugs on myocardial injury.

[2] = system: arrhythmia caused by ischemia/reperfusion insults in anaesthetic rats; test: Ischemia/reperfusion arrhythmia in anaesthetic rats, intravenous injection; type: in vivo, rat
Text: (1) Protective Effects of the Tested Compounds on Myocardial Insults in Rats after Intravenously Injection
Arrhythmic potency induced by myocardial insults was used to assess the potential protective effect of the compounds.

TA97; TA98; TA100; TA102 = test: Ames (mutagenesis) test, overall result in 4 strains; type: cell-based; details: 0.5, 5, 50 and 500 μg/dish
Method: (§1) To assess the mutagenic effects of 5 compounds (IMM-004; IMM-065; IMM-127; IMM-128; IMM-313), the Ames test was performed in 4 strains (TA97; TA98; TA100; TA102). The experiment was conducted with compounds at 4 concentration levels (0.5, 5, 50 and 500 μg/dish). […]

TA97 = test: Ames test, strain TA97; type: cell-based
Method: as §1

TA98 = test: Ames test, strain TA98; type: cell-based
Method: as §1

TA100 = test: Ames test, strain TA100; type: cell-based
Method: as §1

TA102 = test: Ames test, strain TA102; type: cell-based
Method: as §1

[3] = system: acute myocardial ischemia in anesthetized dogs; test: Acute myocardial ischemia and infarction in anesthetized dogs; type: in vivo, dog
Method: Dogs were divided into three groups: 1, vehicle control group, PEG 1 ml/kg, n=5; 2, dilthiazem group, 5 mg/kg, n=5; 3, IMM-004 group, 30 mg/kg, n=5. The tested drugs were prepared in distilled water at volume of 1 ml/kg. The tested items were administrated via duodenum by animals.

[4] = Example 1 table, myocardial cell
[5] = screening of 22 candidate compounds
[6] = N-BT staining, Dilthiazem 5 mg/kg, IMM-004 30 mg/kg, % according to b137

O=c1c2ccc(Cl)cc2[se]n1-c1ccncc1 [IMM-313, 6-chloro-2-(4-pyridyl)-1,2-benz-isoselenazol-3(2H)-one]
Inhibitory rate of inward INa—Ca (%) (Na^+/Ca^2+ exchanger; [4]): 28%
Inhibitory rate of outward INa—Ca (%) (Na^+/Ca^2+ exchanger; [4]): 50%
Inhibitory rate of inward INa—Ca (%) (Na^+/Ca^2+ exchanger; [5]): 28%
Inhibitory rate of outward INa—Ca (%) (Na^+/Ca^2+ exchanger; [5]): 50* %
protective effects on myocardial insults ([1]; 10^−6M, isolated heart): significant protective effects
AAT: arrhythmic occurrence time, Time [1]: 1.67 ± 0.70 min
VF (ventricular fibrillation) Incidence rate (%) [1]: 30* %
VPS (ventricular premature beats) Incidence rate (%) [1]: 20* %
VT (ventricular tachycardia) Incidence rate (%) [1]: 30%
incidence and duration of VT, VF, VE / ventricular arrhythmic ([2]; 3 mg/Kg intravenous (femoral vein), rats): no significant effect
rats with heart rate irreversibly reduced within 5 min (died at last) ([2]; 3 mg/Kg intravenous, before ligation, 7/17 rats): 41.2%
mutagenic effect (Ames test) (TA97; TA98; TA100; TA102): No evidence for a mutagenic effect
TA97 +S9 (TA97; 0.5 μg/dish): 64.67 ± 8.65
TA97 −S9 (TA97; 0.5 μg/dish): 47.33 ± 6.13
TA97 +S9 (TA97; 5 μg/dish): 70.33 ± 4.11
TA97 −S9 (TA97; 5 μg/dish): 38.33 ± 13.09
TA97 +S9 (TA97; 50 μg/dish): 60.00 ± 7.12
TA97 −S9 (TA97; 50 μg/dish): 0
TA97 +S9 (TA97; 500 μg/dish): 0
TA97 −S9 (TA97; 500 μg/dish): 33.33 ± 13.59
TA98 +S9 (TA98; 0.5 μg/dish): 49.33 ± 3.86
TA98 −S9 (TA98; 0.5 μg/dish): 100.50 ± 3.50
TA98 +S9 (TA98; 5 μg/dish): 50.33 ± 5.79
TA98 −S9 (TA98; 5 μg/dish): 86.50 ± 5.50
TA98 +S9 (TA98; 50 μg/dish): 47.33 ± 1.25
TA98 −S9 (TA98; 50 μg/dish): 0
TA98 +S9 (TA98; 500 μg/dish): 0
TA98 −S9 (TA98; 500 μg/dish): 87.67 ± 5.25
TA100 +S9 (TA100; 0.5 μg/dish): 99.33 ± 2.49
TA100 −S9 (TA100; 0.5 μg/dish): 68.67 ± 17.33
TA100 +S9 (TA100; 5 μg/dish): 111.33 ± 7.71
TA100 −S9 (TA100; 5 μg/dish): 45.67 ± 6.65
TA100 +S9 (TA100; 50 μg/dish): 106.00 ± 7.48
TA100 −S9 (TA100; 50 μg/dish): 0
TA100 +S9 (TA100; 500 μg/dish): 0
TA100 −S9 (TA100; 500 μg/dish): 16.5 ± 0.5
TA102 +S9 (TA102; 0.5 μg/dish): 250.00 ± 10.00
TA102 −S9 (TA102; 0.5 μg/dish): 215.33 ± 13.91
TA102 +S9 (TA102; 5 μg/dish): 220.00 ± 28.00
TA102 −S9 (TA102; 5 μg/dish): 211.33 ± 18.35
TA102 +S9 (TA102; 50 μg/dish): 265.33 ± 15.43
TA102 −S9 (TA102; 50 μg/dish): 0
TA102 +S9 (TA102; 500 μg/dish): 0
TA102 −S9 (TA102; 500 μg/dish): 177.67 ± 23.33

O=c1c2cc(F)ccc2[se]n1-c1cccnc1 [IMM-128, 5-fluoro-2-(3-pyridyl)-1,2-benz-isoselenazol-3(2H)-one]
Inhibitory rate of inward INa—Ca (%) (Na^+/Ca^2+ exchanger; [4]): 42%
Inhibitory rate of outward INa—Ca (%) (Na^+/Ca^2+ exchanger; [4]): 44%
Inhibitory rate of inward INa—Ca (%) (Na^+/Ca^2+ exchanger; [5]): 42%
Inhibitory rate of outward INa—Ca (%) (Na^+/Ca^2+ exchanger; [5]): 44* %
AAT: arrhythmic occurrence time, Time [1]: 22.10 ± 3.49 min
VF (ventricular fibrillation) Incidence rate (%) [1]: 50%
VPS (ventricular premature beats) Incidence rate (%) [1]: 25%
VT (ventricular tachycardia) Incidence rate (%) [1]: 50%
mutagenic effect (Ames test) (TA97; TA98; TA100; TA102): No evidence for a mutagenic effect
TA97 +S9 (TA97; 0.5 μg/dish): 70.00 ± 11.86
TA97 −S9 (TA97; 0.5 μg/dish): 59.33 ± 10.27
TA97 +S9 (TA97; 5 μg/dish): 63.00 ± 31.00
TA97 −S9 (TA97; 5 μg/dish): 52.67 ± 3.21
TA97 +S9 (TA97; 50 μg/dish): 60.33 ± 17.59
TA97 −S9 (TA97; 50 μg/dish): 59.00 ± 3.56
TA97 +S9 (TA97; 500 μg/dish): 78.50 ± 21.50
TA97 −S9 (TA97; 500 μg/dish): 65.33 ± 2.35
TA98 +S9 (TA98; 0.5 μg/dish): 40.67 ± 16.05
TA98 −S9 (TA98; 0.5 μg/dish): 64.00 ± 6.48
TA98 +S9 (TA98; 5 μg/dish): 46.00 ± 3.00
TA98 −S9 (TA98; 5 μg/dish): 69.33 ± 12.81
TA98 +S9 (TA98; 50 μg/dish): 56.00 ± 9.63
TA98 −S9 (TA98; 50 μg/dish): 71.33 ± 12.26
TA98 +S9 (TA98; 500 μg/dish): 31.33 ± 6.24
TA98 −S9 (TA98; 500 μg/dish): 83.67 ± 5.79
TA100 +S9 (TA100; 0.5 μg/dish): 167.33 ± 17.98
TA100 −S9 (TA100; 0.5 μg/dish): 127.33 ± 20.04
TA100 +S9 (TA100; 5 μg/dish): 149.67 ± 19.60
TA100 −S9 (TA100; 5 μg/dish): 116.50 ± 30.50
TA100 +S9 (TA100; 50 μg/dish): 141.33 ± 16.36
TA100 −S9 (TA100; 50 μg/dish): 135.00 ± 14.99
TA100 +S9 (TA100; 500 μg/dish): 107.67 ± 13.47
TA100 −S9 (TA100; 500 μg/dish): 100.00 ± 33.67
TA102 +S9 (TA102; 0.5 μg/dish): 277.33 ± 15.17
TA102 −S9 (TA102; 0.5 μg/dish): 214.67 ± 8.22
TA102 +S9 (TA102; 5 μg/dish): 234.67 ± 80.37
TA102 −S9 (TA102; 5 μg/dish): 270.67 ± 12.04
TA102 +S9 (TA102; 50 μg/dish): 333.00 ± 60.83
TA102 −S9 (TA102; 50 μg/dish): 210.00 ± 31.54
TA102 +S9 (TA102; 500 μg/dish): 274.00 ± 37.98
TA102 −S9 (TA102; 500 μg/dish): 296.00 ± 22.86

COc1ccc([C@@H]2Sc3ccccc3N(CCN(C)C)C(=O)[C@@H]2OC(C)=O)cc1 [Dilthiazem, reference compound]
blood oxygen concentration ([3]; 5 mg/kg): Significant increase
myocardial oxygen consumption ([3]; 5 mg/kg): decrease
severity of myocardial ischemia (Σ-ST), in words ([3]; 5 mg/kg via duodenum, from 90 min, lasted for 180 min after administration): reduced
Infarction area/ heart area [3, 6]: 1.54 ± 0.40
Infarction area/ventricle area [3, 6]: 3.54 ± 3.74
Infarction area mm^2 ([3]; N-BT staining, Dilthiazem 5 mg/kg, IMM-004 30 mg/kg, X ± SD): 186.50 ± 21.2*** mm^2
Myocardial infarction size, in words ([3]; N-BT staining, IMM-004 30 mg/kg, dilthiazem 5 mg/kg): significantly reduced
Coronary flows, in words ([3]; after treatment, dilthiazem 5 mg/kg, IMM-004 30 mg/kg): significantly increased

Source: patent publication US20060135569A1, “Use of benzisoselenazolone compounds against ischemic myocardial damage” (priority 2002, published 2006)
